Data taken from US20190225650A1, “PEPTIDOMIMETIC MACROCYCLES AND USE THEREOF IN REGULATING HIF1ALPHA” (AILERON THERAPEUTICS, INC., priority 2013, published 2019).
Bridge positions count the residues as written; N and C are the ends. Square brackets hold non-standard residues; d marks the D form. Peptide text beside a SMILES is read from it. R8 = C=CCCCCCC[C@@](C)(N)C(=O)O; S5 = C=CCCC[C@](C)(N)C(=O)O; Nle = CCCC[C@H](N)C(=O)O; Abu = CC[C@H](N)C(=O)O

Key:
HRE-bla ME-180 cells [1] = assay: Reporter gene assay (HRE-bla ME-180 HIF reporter, GeneBLAzer); type: cell-based, human; conditions: for EC50: 24 hour normoxia
In short: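 A FRET β-lactamase readout of HIF transcription was used. After compound treatment in 0.3% DMSO/media under normoxic conditions, 20 μl of 6× LiveBLAzer-FRET B/G (CCF4-AM) substrate was added. Plates sat 3 hr at room temperature in the dark and were read at 409 Ex/460Em and 409Ex/530Em on a Synergy 2. Inhibition was compared against DMSO vehicle controls, with chetomin as positive control.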

[2] = target: T1, flag-tagged HIF1α (AA 786-826) / His6-tagged p300 (AA 323-423) complex (Homo sapiens, UniProt Q09472); assay: HIF1α p300 displacement assay (TR FRET, +CHAPS); type: binding; conditions: read-out: IC50 (nM) (HIF1α_p300 Displacement + CHAPS)
T1 construct: His6-tagged p300 (AA 323-423); made in house; host or cells: E. coli (pETDuet vector)
In short: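 In this TR-FRET displacement format, peptides compete HIF1α C-terminal transactivation domain off p300-CH. They were preincubated 1 h at room temperature with 300 nM complex in HEPES pH 7.4/NaCl buffer with 7.5 mM CHAPS and 1 mM DTT. Anti-His-D2 (4 nM) and anti-Flag-K (0.5 μM) followed for 2 h, and a one-site fit of the fluorescence ratio gave IC50.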

HRE-bla ME-180 cells [3] = assay: Cell proliferation assay (viability, MTT, 1% FBS); type: cell-based, human
In short: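 Viable cell number was measured with the CellTiter 96 (MTT) kit after compounds were applied for a 16 h normoxic (21% O2) pretreatment, followed by further normoxic or hypoxic (1% O2) culture. Cells: 2×10^4 ME-180 per well, Opti-MEM + 1% FBS, 0.5% DMSO vehicle.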

| EC50 (HRE-bla ME-180 cells [1]) [µM] | IC50 [2] [nM] | SMILES | 18 h Avg % max inhibition at top conc (HIF Rptr-24 hrs normoxia) (μM) (HRE-bla ME-180 cells [1]) | Viability 1% FBS AVG (MTT V3-24 hr Normoxia) (μM) (HRE-bla ME-180 cells [3]) |
| --- | --- | --- | --- | --- |
| 15 to 30 | 200 to 400 | CC[C@@H]1NC(=O)[C@H](CC(=O)O)NC(=O)[C@H](Cc2ccc(O)cc2)NC(=O)[C@@](C)(NC(=O)[C@@H](NC(=O)[C@H](CC(C)C)NC(=O)[C@H](CCC(N)=O)NC(=O)[C@@H]2CCCN2C(=O)[C@H](CC(C)C)NC(=O)[C@H](CCC(=O)O)NC(=O)[C@H](CCCCN)NC(=O)[C@@H](NC(=O)[C@H](CCCNC(=N)N)NC(=O)[C@H](CC(=O)O)NC(=O)[C@H](CC(C)C)NC(=O)CNC(=O)[C@H](CCSC)NC(=O)[C@]2(C)CCCC=CCCC[C@](C)(NC(=O)[C@H](CCSC)NC(=O)[C@H](CC(C)C)NC(=O)[C@@H](NC(=O)[C@H](CCC(=O)O)NC(=O)[C@H](CCC(=O)O)NC(=O)[C@H](CC(=O)O)NC(=O)[C@@H](NC(=O)[C@H](Cc3ccccc3)NC(C)=O)[C@@H](C)CC)C(C)C)C(=O)N[C@@H](CC(C)C)C(=O)N[C@@H](C(C)C)C(=O)N[C@@H]([C@@H](C)CC)C(=O)N2)[C@@H](C)CC)[C@@H](C)O)CCCC=CCCC[C@@](C)(C(=O)N[C@H](C(=O)N[C@@H](CC(N)=O)C(=O)N[C@@H](C)C(N)=O)C(C)C)NC1=O [SP-321] (Ac-FIDEEVLM[S5]LVI[S5]MGLDRIKELPQLT[S5]YD[Abu][S5]VNA-NH2; staple 9-13, 27-31) | +++ (≤25 but <50: +++) | ++++ (≥30: ++++) |
| > 30 | ≤ 200 | CCCC[C@H](NC(=O)[C@H](CCC(=O)O)NC(=O)[C@]1(C)CCCC=CCCCCCC[C@@](C)(NC(=O)[C@H](CCC(=O)O)NC(=O)[C@H](CC(=O)O)NC(=O)[C@@H](NC(=O)[C@H](CC(N)=O)NC(=O)[C@@H](NC(=O)[C@]2(C)CCCC=CCCCCCC[C@@](C)(NC(=O)[C@H](CCC(=O)O)NC(=O)[C@H](C)NC(=O)[C@H](CCC(N)=O)NC(=O)[C@H](CC(C)C)NC(=O)[C@H](CC(C)C)NC(C)=O)C(=O)N[C@@H](CC(C)C)C(=O)N[C@@H](CC(C)C)C(=O)N[C@@H](CCCNC(=N)N)C(=O)N[C@@H](C)C(=O)N[C@@H](CC(C)C)C(=O)N[C@@H](CC(=O)O)C(=O)N2)C(C)C)[C@@H](C)CC)C(=O)N[C@@H](C(C)C)C(=O)N[C@@H](CC(C)C)C(=O)N[C@@H](CCCC)C(=O)N[C@@H](CO)C(=O)N[C@@H](CC(C)C)C(=O)N[C@@H](C(C)C)C(=O)N1)C(N)=O [SP-357] (Ac-LLQAE[R8]LLRALD[S5]VNIDE[R8]VL[Nle]SLV[S5]E[Nle]-NH2; staple 6-13, 19-26) | ++ (≤10 but <25: ++) | ++++ (≥30: ++++) |
| 5 to 15 | 400 to 700 | CC[C@H](C)[C@H](NC(=O)[C@H](CCCNC(=N)N)NC(=O)[C@H](CC(=O)O)NC(=O)[C@H](CC(C)C)NC(=O)[C@H](C)NC(=O)[C@H](CCSC)NC(=O)[C@H](CCC(=O)O)NC(=O)[C@@H](NC(=O)[C@@H](NC(=O)[C@H](CC(C)C)NC(=O)[C@]1(C)CCCC=CCCC[C@](C)(NC(=O)[C@H](CCC(=O)O)NC(=O)[C@H](CC(=O)O)NC(=O)[C@@H](NC(=O)[C@H](Cc2ccccc2)NC(C)=O)[C@@H](C)CC)C(=O)N[C@@H](C(C)C)C(=O)N[C@@H](CC(C)C)C(=O)N[C@@H](CCSC)C(=O)N1)C(C)C)[C@@H](C)CC)C(=O)N[C@@H](CCCCN)C(=O)N[C@@H](CCC(=O)O)C(N)=O [SP-113] (Ac-FIDE[S5]VLM[S5]LVIEMALDRIKE-NH2; staple 5-9) | ++++ (≥50: ++++) | ++++ (≥30: ++++) |
| > 30 | 200 to 400 | CCCC[C@H](NC(=O)[C@@]1(C)CCCC=CCCCC2(CCCC=CCCC[C@](C)(NC(=O)[C@H](CCC(=O)O)NC(=O)[C@H](CC(=O)O)NC(=O)[C@@H](NC(=O)[C@H](Cc3ccccc3)NC(C)=O)[C@@H](C)CC)C(=O)N[C@@H](C(C)C)C(=O)N[C@@H](CC(C)C)C(=O)N[C@@H](CCC(=O)O)C(=O)N2)C(=O)N[C@@H](CC(C)C)C(=O)N[C@@H](C(C)C)C(=O)N[C@@H]([C@@H](C)CC)C(=O)N1)C(=O)N[C@@H](C)C(=O)N[C@@H](CC(C)C)C(N)=O (stereo partly shown) [SP-205] | + (<10: +) | ++++ (≥30: ++++) |
| 5 to 15 | > 700 | CCCC[C@H](NC(=O)[C@H](Cc1ccccc1)NC(=O)[C@@H](NC(=O)[C@H](C)NC(=O)[C@H](CCC(N)=O)NC(=O)[C@H](CC(=O)O)NC(=O)[C@@H](NC(=O)[C@H](Cc1ccccc1)NC(C)=O)[C@@H](C)CC)C(C)C)C(=O)N[C@@]1(C)CCCC=CCCC[C@@](C)(C(=O)N[C@@H](CO)C(=O)N[C@@H](C)C(=O)N[C@@H](CC(C)C)C(=O)N[C@@H](CC(C)C)C(N)=O)NC(=O)[C@H]([C@@H](C)CC)NC(=O)[C@H](C(C)C)NC(=O)[C@H](CC(C)C)NC1=O [SP-257] (Ac-FIDQAVF[Nle][S5]LVI[S5]SALL-NH2; staple 9-13) | ++++ (≥50: ++++) | ++ (≤5 but <15: ++) |
| ≤ 5 | 200 to 400 | CCCC[C@H](NC(=O)[C@H](C)NC(=O)[C@]1(C)CCCC=CCCCCCC[C@@](C)(NC(=O)[C@H](CCC(=O)O)NC(=O)[C@H](CC(=O)O)NC(=O)[C@@H](NC(=O)[C@H](Cc2ccccc2)NC(C)=O)[C@@H](C)CC)C(=O)N[C@@H](C(C)C)C(=O)N[C@@H](CC(C)C)C(=O)N[C@@H](CCCC)C(=O)N[C@@H](CO)C(=O)N[C@@H](CC(C)C)C(=O)N[C@@H](C(C)C)C(=O)N1)C(=O)N[C@@H](C)C(=O)N[C@@H](CC(C)C)C(N)=O [SP-196] (Ac-FIDE[R8]VL[Nle]SLV[S5]A[Nle]AL-NH2; staple 5-12) | ++++ (≥50: ++++) | ++++ (≥30: ++++) |
| > 30 | 200 to 400 | CCCC[C@H](NC(=O)[C@H](CCC(=O)O)NC(=O)[C@@H](NC(=O)[C@@H](NC(=O)[C@H](CC(C)C)NC(=O)[C@]1(C)CCCC=CCCC[C@](C)(NC(=O)[C@H](CCC(=O)O)NC(=O)[C@H](CC(=O)O)NC(=O)[C@H](CO)NC(=O)[C@H](Cc2ccccc2)NC(C)=O)C(=O)N[C@@H](C(C)C)C(=O)N[C@@H](CC(C)C)C(=O)N[C@@H](CCCC)C(=O)N1)C(C)C)[C@@H](C)CC)C(=O)N[C@@H](C)C(=O)N[C@@H](CC(C)C)C(N)=O [SP-154] (Ac-FSDE[S5]VL[Nle][S5]LVIE[Nle]AL-NH2; staple 5-9) | + (<10: +) | ++++ (≥30: ++++) |
| > 30 | 400 to 700 | CCCC[C@H](NC(=O)[C@]1(C)CCCC=CCCC[C@](C)(NC(=O)[C@H](CCCC)NC(=O)[C@H](CC(C)C)NC(=O)[C@@H](NC(=O)[C@H](C)NC(=O)[C@H](CCC(=O)O)NC(=O)[C@H](CC(=O)O)NC(=O)[C@@H](NC(=O)[C@H](CC(N)=O)NC(=O)[C@@H](NC(=O)[C@]2(C)CCCC=CCCCCCC[C@@](C)(NC(=O)[C@H](CCC(=O)O)NC(=O)CNC(=O)[C@H](CCC(N)=O)NC(=O)[C@H](CC(C)C)NC(=O)[C@H](CC(C)C)NC(C)=O)C(=O)N[C@@H](CC(C)C)C(=O)N[C@@H](CC(C)C)C(=O)N[C@@H](CCCNC(=N)N)C(=O)N[C@@H](C)C(=O)N[C@@H](CC(C)C)C(=O)N[C@@H](CC(=O)O)C(=O)N2)C(C)C)[C@@H](C)CC)C(C)C)C(=O)N[C@@H](CC(C)C)C(=O)N[C@@H](C(C)C)C(=O)N[C@@H]([C@@H](C)CC)C(=O)N1)C(N)=O [SP-347] (Ac-LLQGE[R8]LLRALD[S5]VNIDEAVL[Nle][S5]LVI[S5][Nle]-NH2; staple 6-13, 23-27) | +++ (≤25 but <50: +++) | ++++ (≥30: ++++) |
| > 30 | 200 to 400 | CCCC[C@H](NC(=O)[C@H](CCC(=O)O)NC(=O)[C@@H](NC(=O)[C@@H](NC(=O)[C@H](CC(C)C)NC(=O)[C@]1(C)CCCC=CCCC[C@](C)(NC(=O)[C@H](CCC(=O)O)NC(=O)[C@H](CC(=O)O)NC(=O)[C@@H](NC(=O)[C@H](Cc2ccccc2)NC(C)=O)[C@@H](C)CC)C(=O)N[C@@H](C(C)C)C(=O)N[C@@H](CC(C)C)C(=O)N[C@@H](CCCC)C(=O)N1)C(C)C)[C@@H](C)CC)C(=O)N[C@@H](C)C(=O)N[C@@H](CC(C)C)C(=O)N[C@@H](CC(=O)O)C(=O)N[C@@H](CCCNC(=N)N)C(=O)N[C@H](C(N)=O)[C@@H](C)CC [SP-109] (Ac-FIDE[S5]VL[Nle][S5]LVIE[Nle]ALDRI-NH2; staple 5-9) | + (<10: +) | ++ (≤5 but <15: ++) |
| 5 to 15 | > 700 | CCCC[C@H](NC(=O)[C@H](Cc1ccccc1)NC(=O)[C@@H](NC(=O)[C@H](C)NC(=O)[C@H](CCC(N)=O)NC(=O)[C@H](CC(=O)O)NC(=O)[C@@H](NC(=O)[C@H](Cc1ccccc1)NC(C)=O)[C@@H](C)CC)C(C)C)C(=O)N[C@@]1(C)CCCC=CCCC[C@@](C)(C(=O)N[C@@H](Cc2c[nH]cn2)C(=O)N[C@@H](C)C(=O)N[C@@H](CC(C)C)C(=O)N[C@@H](CC(C)C)C(N)=O)NC(=O)[C@H]([C@@H](C)CC)NC(=O)[C@H](C(C)C)NC(=O)[C@H](CC(C)C)NC1=O [SP-258] (Ac-FIDQAVF[Nle][S5]LVI[S5]HALL-NH2; staple 9-13) | +++ (≤25 but <50: +++) | ++ (≤5 but <15: ++) |
